Results taken from patent US4180572A, “Lipogenesis control by esters of benzoxazinecarboxylic acids” (Shell Oil Company, priority 1978, dated 1979).
Structures can show the parent of a compound that is named as a salt.

test system: swine adipose tissue; test: Inhibition of lipogenesis (lipid synthesis from glucose-U-14C) in swine adipose tissue slices; assay type: cell-based; conditions: Sus scrofa, 100 micrograms per milliliter, 37° C., 2 hours, glucose-U14C, insulin, 5% DMSO, triplicate, read-out: Percent Inhibition (of lipogenesis compared to control)
Description: The manner in which they cause this effect is not known with certainty; it is believed that they interfere with the synthesis of fatty acids in the tissue. Their effectiveness for this purpose has been ascertained by immersing samples of swine adipose tissue in a liquid medium containing radioactive glucose and the test chemical for a period of time, then isolating the lipid from the treated tissue and determining the up-take of the radioactive carbon by means of scintillation counting techniques. These tests were conducted in swine adipose tissue because in swine the primary site of lipogenesis--i.e., fatty acid synthesis--appearsto be adipose tissue. […] 150 milligrams of slices of swine adipose tissue were incubated at 37° C. for 2 hours with shaking in 3 milliliters of Krebs-Ringer bicarbonate solution containing one-half the normal calcium ion concentration, 60 micromoles of glucose, 0.5 microCurie of glucose-U^14 C, and 300 microunits of insulin, and 5% dimethyl sulfoxide (DMSO). The test compounds were added as a solution or suspension in DMSO and were present at a concentration of 100 micrograms per milliliter of the incubation mixture. The incubation was terminated by addition of 0.25 milliliter of 1 N sulfuric acid. The resulting mixture was extracted with a total of 25 milliliters of chloroform:methanol (2:1, v/v). The extracts were washed according to Folch et al. (J. Biol. […] The tests were conducted in triplicate and were accompanied by control tests in which all ingredients,proportions and conditions were the same except that no test compound was included. From the data obtained were calculated the percent inhibition of lipid synthesis by the test compound in each case. The data obtained from the tests were set out in Table I, as the percent inhibition of lipogenesis compared to the results obtained in the control tests wherein only the test compound was omitted.

Structure (SMILES)	inhibition at 100 µg/mL
CCOC(=O)C1CNc2cc(-c3ccccc3)ccc2O1 (stereo not drawn) [Compound 13, ethyl 6-phenyl-3,4-dihydro-2H-1,4-benzoxazine-2-carboxylate]	34%
CCOC(=O)C1CNc2ccc([N+](=O)[O-])cc2O1 (stereo not drawn) [Compound 14, ethyl 7-nitro-3,4-dihydro-2H-1,4-benzoxazine-2-carboxylate]	92%
CCOC(=O)C1CNc2ccc(C)cc2O1 (stereo not drawn) [Compound 10, ethyl 7-methyl-3,4-dihydro-2H-1,4-benzoxazine-2-carboxylate]	54%
CCOC(=O)C1CNc2cc(C)ccc2O1 (stereo not drawn) [Compound 3, Ethyl 6-methyl-3,4-dihydro-2H-1,4-benzoxazine-2-carboxylate hydrochloride]	18%
CCOC(=O)C1CNc2cc(N)ccc2O1 (stereo not drawn) [Compound 5, ethyl 6-amino-3,4-dihydro-2H-1,4-benzoxazine-2-carboxylate hydrochloride]	43%
CCOC(=O)C1CN(Cc2ccccc2)c2ccccc2O1 (stereo not drawn) [Compound 1, Ethyl 3,4-dihydro-4-benzyl-2H-1,4-benzoxazine-2-carboxylate]	53%
CCOC(=O)C1CNc2cc([N+](=O)[O-])cc(Cl)c2O1 (stereo not drawn) [Compound 11, ethyl 8-chloro-6-nitro-3,4-dihydro-2H-1,4-benzoxazine-2-carboxylate]	31%
CCOC(=O)C1CNc2ccccc2O1 (stereo not drawn) [Compound 1A, 3,4-dihydro-2H-1,4-benzoxazine-2-carboxylic acid ethyl ester hydrochloride]	62%
CCOC(=O)C1CNc2cc([N+](=O)[O-])ccc2O1 (stereo not drawn) [Compound 4, ethyl 6-nitro-3,4-dihydro-2H-1,4-benzoxazine-2-carboxylate]	74%
CCOC(=O)C1CNc2cc(Cl)c(Cl)cc2O1 (stereo not drawn) [Compound 9, ethyl 6,7-dichloro-2,3-dihydro-2H-1,4-benzoxazine-2-carboxylate]	56%
CCOC(=O)C1CNc2cccc(Cl)c2O1 (stereo not drawn) [Compound 12, ethyl 8-chloro-3,4-dihydro-2H-1,4-benzoxazine-2-carboxylate]	39%
CCOC(=O)C1CNc2cc(OC)ccc2O1 (stereo not drawn) [Compound 8, ethyl 6-methoxy-2,3-dihydro-2H-1,4-benzoxazine-2-carboxylate]	81%
CCOC(=O)C1CNc2cc(NS(C)(=O)=O)ccc2O1 (stereo not drawn) [Compound 6, ethyl 3,4-dihydro-6-((methylsulfonyl)amino)-2H-1,4-benzoxazine-2-carboxylate]	76%
CCOC(=O)C1CNc2cc(C(F)(F)F)ccc2O1 (stereo not drawn) [Compound 7, ethyl 6-(trifluoromethyl)-3,4-dihydro-2H-1,4-benzoxazine-2-carboxylate]	31%
CCOC(=O)C1CNc2cc(Cl)ccc2O1 (stereo not drawn) [Compound 2, Ethyl 6-chloro-3,4-dihydro-2H-1,4-benzoxazine-2-carboxylate]	28%
